Reference: the NIST ThermoML archive (doi:10.1016/j.tca.2014.04.026)
Numbers after ± are expanded uncertainties.

Assay: molar heat capacity at constant pressure
Details: 101 kPa, Liquid, Small sample (50 mg) DSC

CCn1cc[n+](C)c1.N#C[C-](C#N)C#N [1-ethyl-3-methyl-1H-imidazolium tricyanomethanide]
Details | molar heat capacity at constant pressure [J/K/mol]
296.2 K | 357 ± 7
300.2 K | 360 ± 7
304.2 K | 362 ± 7
308.2 K | 364 ± 7
312.2 K | 366 ± 7
316.2 K | 367 ± 7
320.2 K | 369 ± 7
324.2 K | 370 ± 7
328.2 K | 372 ± 7
332.2 K | 374 ± 8
336.2 K | 377 ± 8
340.2 K | 379 ± 8
344.2 K | 382 ± 8
348.2 K | 384 ± 8
352.2 K | 387 ± 8
356.2 K | 390 ± 8
360.2 K | 393 ± 8
364.2 K | 396 ± 8
368.2 K | 399 ± 8
372.2 K | 403 ± 8
